# Reference: US5621133A (priority 1995, dated 1997)
# Where a name gives a salt, the structure may show the parent alone. Read-outs that look alike come from different tables or passages of the source.
# Experiments:
# dopamine D-2 receptor = dopamine D-2 receptor (Rattus norvegicus, UniProt P61169); assay: biochemical; assay type: binding; settings: rat caudate, [125I]-p-aminophenylethyl spiroperidol; read-out: D-2 Ki
# Method: Homogenized rat caudate was the source of the D-2 receptors. […] The molar affinity of the compound for the receptor binding site was calculated by the same method used for the D-1 receptor assay, assuming a competitive interaction between the compound and the radiolabeled ligand.
# dopamine D-1 receptor [1] = target: T1, dopamine D-1 receptor (Rattus norvegicus, UniProt P18901); settings: read-out: D-1 Ki; rat caudate, [125I]SCH-23982
# T1 sequence (P18901 whole entry): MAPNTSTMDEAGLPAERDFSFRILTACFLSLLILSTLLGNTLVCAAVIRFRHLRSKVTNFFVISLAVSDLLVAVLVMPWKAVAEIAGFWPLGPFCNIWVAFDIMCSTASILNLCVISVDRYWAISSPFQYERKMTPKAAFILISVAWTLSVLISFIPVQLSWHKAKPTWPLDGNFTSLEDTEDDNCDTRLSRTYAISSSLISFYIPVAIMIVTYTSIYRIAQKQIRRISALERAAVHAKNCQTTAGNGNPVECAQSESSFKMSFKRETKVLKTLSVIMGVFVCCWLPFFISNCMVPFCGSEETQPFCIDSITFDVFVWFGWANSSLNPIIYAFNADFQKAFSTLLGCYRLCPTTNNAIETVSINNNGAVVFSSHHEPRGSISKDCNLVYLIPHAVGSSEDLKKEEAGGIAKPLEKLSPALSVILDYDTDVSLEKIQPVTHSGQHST
# Excerpt: (§1) The compounds compete with the radiolabeled ligand for occupancy of the receptors and the molar potency of each compound was quantified.
# (§2) The Ki values are inversely proportional to the affinity of the compound for the receptor.
# dopamine D-1 receptor [2] = settings: for Intrinsic Activity (adenylate cyclase assay): dopamine = 100, goldfish retina or rat striatum; for EC50: read-out: EC50 (agonist activity in adenylate cyclase assay), tissue from goldfish retina or rat striatum
# Method: In order to determine agonist activity, cell-free tissue homogenates are incubated in an ionic buffer solution containing ATP and the compound being evaluated. The tissue was obtained from either goldfish retina or rat striatum.
# [3] = test system: striatal dopamine receptors; assay: Rotation behavior assay of in vivo activity (6-hydroxydopamine lesioned rat rotational model); settings: for ED50 s.c. (rotation behavior): injected subcutaneously
# dopamine D-1 receptor [4] = target: T1, dopamine D-1 receptor; assay: biochemical; settings: D-1 Ki, rat caudate, [125I]SCH-23982
# Excerpt: as §1, §2
# Sequence of dopamine D-2 receptor (P61169 whole entry): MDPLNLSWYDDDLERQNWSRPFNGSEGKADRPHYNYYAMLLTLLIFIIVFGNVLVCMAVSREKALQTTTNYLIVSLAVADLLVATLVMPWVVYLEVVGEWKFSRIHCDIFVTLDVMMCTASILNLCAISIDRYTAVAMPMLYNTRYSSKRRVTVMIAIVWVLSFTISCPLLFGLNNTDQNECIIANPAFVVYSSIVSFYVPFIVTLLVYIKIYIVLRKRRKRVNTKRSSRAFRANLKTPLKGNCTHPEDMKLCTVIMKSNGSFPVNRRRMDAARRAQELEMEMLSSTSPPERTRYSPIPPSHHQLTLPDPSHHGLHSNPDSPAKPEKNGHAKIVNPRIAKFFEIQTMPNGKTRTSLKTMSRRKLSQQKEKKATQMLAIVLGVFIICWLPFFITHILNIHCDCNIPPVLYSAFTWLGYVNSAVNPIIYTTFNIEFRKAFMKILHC
SMILES,Ki (dopamine D-2 receptor) [nM],Ki (dopamine D-1 receptor [1]) [nM],Intrinsic Activity (adenylate cyclase assay) (dopamine D-1 receptor [2]),EC50 (dopamine D-1 receptor [2]) [nM],Ki (dopamine D-1 receptor [4]) [nM],Intrinsic Activity (adenylate cyclase assay) (dopamine D-1 receptor [2]; Hydrobromide),EC50 (dopamine D-1 receptor [2]; Hydrobromide) [nM],ED50 s.c. (rotation behavior) [3] [µmol/kg],ED50 oral (rotation behavior) [3] [µmol/kg]
NC[C@@H]1C[C@H](C23CC4CC(CC(C4)C2)C3)Cc2c1ccc(O)c2O (relative stereo) [Example 235],> 10000,550,83,300,–,–,–,–,–
"CC(C)(C)CC1Cc2c(ccc(O)c2O)C(CN)O1.Cl (stereo not drawn) [Example 214, 1-Aminomethyl-3-(2,2-dimethylpropyl)-3,4-dihydro-5,6-dihydroxy-1H-2-benzopyran Hydrochloride]",5200,–,106,20,20,–,–,0.085,–
NCC1OC2(CCCCCC2)Cc2c1ccc(O)c2O (stereo not drawn) [Example 93],> 10000,–,113,110,470,–,–,0.9,–
CNC[C@@H]1O[C@H](C23CC4CC(CC(C4)C2)C3)Cc2c1cc(F)c(O)c2O [Example 145],12000,–,49,38,67,–,–,0.31,–
NCC1OC2(CCCCCCCC2)Cc2c1ccc(O)c2O (stereo not drawn) [Example 221],> 10000,–,84,80,90,–,–,> 3,–
CNCC1OC(CC2CCCC2)Cc2c1ccc(O)c2O (stereo not drawn) [Example 218],410,–,115,10,20,–,–,0.93,–
CNC[C@H]1O[C@@H](CC(C)(C)C)Cc2c1ccc(O)c2O (relative stereo) [Example 146],1400,–,82,120,49,–,–,0.12,7
CN1CCC2=C(C1)c1ccc(O)c(O)c1CC21CCCCCC1 [Example 249],600,–,32,200,50,–,–,0.12,–
NCC1OC(CC2CCCC2)Cc2c1ccc(O)c2O (stereo not drawn) [Example 215],800,–,114,20,20,–,–,0.55,–
Oc1ccc2c(c1O)CC1(CCCC1)C1=C2CNCC1 [Example 204],1500,–,110,48,160,–,–,1.1,18
C=CC(C)[C@H]1Cc2c(ccc(O)c2O)[C@@H](CN)O1 (relative stereo) [Example 105],1000,–,110,9,17,–,–,0.17,–
CNC[C@@H]1O[C@H](C2(C)CCCCC2)Cc2c1ccc(O)c2O (relative stereo) [Example 226],1500,–,89,40,20,–,–,> 1,–
NC[C@@H]1O[C@H](CC23CC4CC(CC(C4)C2)C3)Cc2c1ccc(O)c2O (relative stereo) [Example 90],900,–,128,22,76,–,–,0.6,8
CC1([C@@H]2Cc3c(ccc(O)c3O)[C@H](CN)O2)CCCCC1 (relative stereo) [Example 222],3200,–,87,40,10,–,–,0.3,–
CN(C)CC1OC(CC(C)(C)C)Cc2c1ccc(O)c2O (stereo not drawn) [Example 220],3100,–,72,400,410,–,–,0.52,–
CNC[C@@H]1O[C@H](CC23CC4CC(CC(C4)C2)C3)Cc2c1ccc(O)c2O (relative stereo) [Example 139],3200,–,129,9.7,450,–,–,0.4,23
CNCC1OC(CC(C)(C)C)Cc2c1ccc(O)c2O (stereo not drawn) [Example 217],1000,–,108,20,30,–,–,0.12,–
CC(C)(C)C[C@H]1Cc2c(ccc(O)c2O)[C@@H](CN)O1 (relative stereo) [Example 104],> 10000,–,110,54,37,–,–,0.13,5
"Oc1ccc2c(c1O)CC1(CCCCCC1)C1=C2CNCC1 [Example 199, Spiro[cycloheptane-1,5'-(1',2',3',4',5',6'-hexahydrobenzo[h]isoquinoline)]-7',8'-diol Hydrobromide]",1400,–,–,–,54,83,33,1.5,31
CN(C)C[C@@H]1O[C@H](C23CC4CC(CC(C4)C2)C3)Cc2c1ccc(O)c2O [Example 148],4600,–,79,22,64,–,–,0.12,11

# The next lines start with results.
Ki (dopamine D-2 receptor) [nM],Ki (dopamine D-1 receptor [1]) [nM],Intrinsic Activity (adenylate cyclase assay) (dopamine D-1 receptor [2]),EC50 (dopamine D-1 receptor [2]) [nM],Ki (dopamine D-1 receptor [4]) [nM],Intrinsic Activity (adenylate cyclase assay) (dopamine D-1 receptor [2]; Hydrobromide),EC50 (dopamine D-1 receptor [2]; Hydrobromide) [nM],SMILES,ED50 s.c. (rotation behavior) [3] [µmol/kg],ED50 oral (rotation behavior) [3] [µmol/kg]
500,2300,107,93,–,–,–,NC[C@@H]1O[C@H](CCOCc2ccccc2)Cc2c1ccc(O)c2O (relative stereo) [Example 77],–,–
–,1900,92,230,–,–,–,CCC1Cc2c(ccc(O)c2O)C(CN)O1 (stereo not drawn) [Example 67],–,–
> 10000,850,53,3100,–,–,–,CCNCC1=CC(c2ccccc2)Cc2c1ccc(O)c2O (stereo not drawn) [Example 153],–,–
> 10000,4600,62,60,–,–,–,"NCC1c2ccc(O)c(O)c2CC(c2ccccc2)C1CCO (stereo not drawn) [Example 45, [1,2-trans]1-Aminomethyl-5,6-dihydroxy-2-(2'-hydroxy-1'-ethyl)-3-phenyl-1,2,3,4-tetrahydronaphthalene Formic Acid Salt]",–,–
710,670,107,690,–,–,–,CCCCCC(NC(C)=O)[C@@H]1Cc2c(ccc(O)c2O)[C@H](CN)O1 (relative stereo) [Example 162],–,–
540,–,80,390,640,–,–,CCCCCCCC[C@@H]1Cc2c(ccc(O)c2O)[C@H](CN)O1 (relative stereo) [Example 64],58,–
> 10000,4100,–,–,–,–,–,"C[C@H](N)C1OC(c2ccccc2)Cc2c1ccc(O)c2O (stereo partly drawn) [Example 108, [1,3-cis]1-(1S-(1-Amino)ethyl)-5,6-dihydroxy-3-phenyl-3,4-dihydro-1H-2-benzopyran]",–,–
6600,–,94,46,160,–,–,C=CCNC[C@H]1O[C@@H](c2ccccc2)Cc2c1ccc(O)c2O (stereo in doubt) [Example 126],0.16,28
1400,–,130,7,21,–,–,CC(C)C[C@@H]1Cc2c(ccc(O)c2O)[C@H](CN)O1 (relative stereo) [Example 89],0.12,7
> 10000,–,85,90,300,–,–,NCC1=CC(C23CC4CC(CC(C4)C2)C3)Cc2c1ccc(O)c2O (stereo not drawn) [Example 231],> 3,–
3900,–,88,180,235,–,–,CC[C@H]1Cc2c(ccc(O)c2O)[C@@H](CN)O1 (relative stereo) [Example 51],7,–
3700,–,114,5,3,–,–,CC(C)CC1Cc2c(ccc(O)c2O)C(CN)O1 (stereo not drawn) [Example 216],0.07,–
12000,59000,–,–,–,–,–,CCCN(CCC)CC1=CC(c2ccccc2)Cc2c1ccc(O)c2O (stereo not drawn) [Example 152],–,–
2200,–,157,51,3,–,–,CNC[C@@H]1O[C@H](c2ccccc2)Cc2c1ccc(O)c2O [Example 138],0.15,–
> 10000,–,94,370,20,–,–,CN(C)C[C@@H]1O[C@H](c2ccccc2)Cc2c1ccc(O)c2O (relative stereo) [Example 227],0.045,–
